These results are taken from EPA's ToxValDB 9.5 (doi:10.2903/j.efsa.2005.34ar).

In general, NOAEL refers to the highest tested level that showed no adverse finding.

Series [1] relates to Apis mellifera. The conditions noted are these: acute, mortality.
Series [2] concerns Canidae. The following applies: chronic; duration: 1 years; oral; Dog Other; clinical signs.
Series [3] relates to Colinus virginianus.
For series [4], the system named is Daphnia magna. The conditions noted are these: chronic/long-term; duration: 21 days; reproduction.
For series [5], the system named is Lepomis macrochirus. The following applies: acute; duration: 96 hours; mortality.
For series [6], the system named is Oncorhynchus mykiss. The conditions noted are these: chronic/long-term; duration: 21 days.
The subject of series [7] is Rattus norvegicus.
Series [8] concerns Tagia sp. The following applies: acute; mortality.
The subject of series [9] is Aphidius rhopalosiphi. The series is described as follows: LR50; higher = less toxic. The following applies: not reported; duration: 14 days; mortality.
Series [10] concerns Typhlodromus pyri. The series is described as follows: LR50; higher = less toxic. The following applies: acute; duration: 14 days; mortality.

Values after ≈ are worked out from the molar mass of the structure shown. A value given as a limit tells only on which side of the number the result lay.

For `C#CCOC(=O)[C@@H](C)Oc1ccc(Oc2ncc(Cl)cc2F)cc1` [Clodinafop-propargyl], the LD50 was 40.9 µg/piece in [1] (dermal); > 93.7 µg/piece in series [1] (duration: 48 hours, oral, unspecified); 1360 mg/kg in [3] (acute, oral, mortality); 1390 mg/kg in [7] (acute, oral, M, mortality). Besides, the NOAEL in series [2] amounted to 3.4 mg/kg-day; in series [7] (chronic, duration: 2 years, oral, clinical signs), 0.32 mg/kg-day; in series [7] (developmental, development) it was 5 mg/kg-day; in series [7] (reproduction developmental, reproduction) it was 4.63 mg/kg-day. For the same compound, the LC50 in series [3] (acute, oral, diet, mortality) is > 980 mg/kg-day; in [5], 0.21 µg/mL (≈ 0.6 µM); in [8] it was 197 mg/kg. The NOEC was determined as 43 mg/kg-day in series [3] (reproduction developmental), 0.23 mg/L in series [4] and 0.1 mg/L in [6]. Moreover, the LR50 in series [9] is 3.1 g/ha; in series [10] it was 20 g/ha.
